CC50, EC50 and IC50 data for 12 compounds are collected here from ChEMBL document CHEMBL6103548, “Recent advances in screening methods enabling the discovery of novel anti-hepatitis B virus drug candidates” (Eur J Med Chem, 2025).

Series [1] can be described thus: Cytotoxicity against human HepDE19 cells. The format is toxicity, cell-based.
A short description of series [2]: Antiviral activity against HBV infected in SRluc-HBc6 cells. In kind it is functional, cell-based. The conditions noted are these: Hepatitis B virus.
A short description of series [3]: Cytotoxicity against SRluc-HBc6 cells (unknown origin). The format is functional.
Series [4] is described as follows: Cytotoxicity against human HePAD38 cells assessed as reduction in cell viability by XTT assay. In kind it is functional.
Series [5] has as its system Hepatitis B virus. The series is described as follows: Antiviral activity against Hepatitis B virus infected in human HePAD38 cells assessed as inhibition of viral DNA replication by qPCR analysis. The format is functional, organism-based. In general terms: Quantitative PCR measures a nucleic acid by following its amplification.
For series [6], the system named is Hepatitis B virus. Nature of the series: Antiviral activity against Hepatitis B virus infected in HepDE19 cells assessed as inhibition of viral replication. The format is functional, organism-based.
Series [7] relates to Hepatitis B virus. The series is described as follows: Antiviral activity against HBV infected in human HePAD38 cells assessed as reduction in intracellular core HBV DNA replication by Southern blot analysis. In kind it is functional, organism-based.
The nature of series [8]: Cytotoxicity against human HePAD38 cells assessed as reduction in cell viability incubated for 72 hrs by MTT assay. The format is functional. (In general: Tetrazolium assays rely on reduction of a dye to a coloured formazan, in cell work by metabolically active cells.)
The test system of series [9] is HepG2. Nature of the series: Cytotoxicity against human HepG2 cells by XTT assay. The format is functional.
Series [10] has as its system Hepatitis B virus. Nature of the series: Antiviral activity against Hepatitis B virus assessed as inhibition of HbeAg level.
Series [11] concerns Hepatitis B virus. The series is described as follows: Antiviral activity against Hepatitis B virus assessed as inhibition of HbsAg level.
In series [12] the test system is HepG2. The series is described as follows: Cytotoxicity against human HepG2 cells assessed as reduction in cell viability incubated for 24 hrs by CCK-8 assay. In kind it is functional.
Series [13] relates to Hepatitis B virus. The series is described as follows: Antiviral activity against HBV infected in human HepG2 cells assessed as reduction in viral DNA replication. In kind it is functional, organism-based.
Series [14] has as its system Hepatitis B virus. The series is described as follows: Antiviral activity against HBV infected in human HepG2-hNTCP cells assessed as inhibition of HBsAg formation. The format is functional, organism-based.
In series [15] the test system is HepG2. Nature of the series: Cytotoxicity against human HepG2 cells assessed as reduction in cell growth. The format is functional.

Broadly, the CC50 is the concentration that lowers cell viability or growth by half. Compound `Cc1nc2cc(NC(=O)c3ccc(S(=O)(=O)N(C)Cc4ccccc4)cc3)ccc2s1` showed a CC50 in [1] of 2.57 µM.

`O=C(CN(c1cc(C(F)(F)F)ccc1Cl)S(=O)(=O)c1ccccc1)NCc1ccncc1` yielded a CC50 in series [1] greater than 50 µM.

As a reminder, the EC50 is the concentration at which the effect is half-maximal. `CC1=C[C@@H]2C(=O)[C@]3(C=C(C)[C@H](O)[C@@]3(O)[C@@H]1O)[C@H](C)C[C@@H]1[C@H]2C1(C)C` returned an EC50 in series [2] of 8.9 µM. The compound also had a CC50 in series [3] greater than 100 µM.

Regarding `Cc1c(C(=O)Nc2ccccc2)sc(N)c1C(N)=O`, the CC50 in series [4] is greater than 300 µM. Moreover, the EC50 in [5] is 3.6 µM.

As for `O=C(O)C1CC(OCCOc2ccc(-c3cc(=O)c4cccc(Cl)c4o3)cc2)C1` (configuration not stated), the EC50 in [6] worked out at 0.1 µM. In [1], this compound returned a CC50 of 0.2 µM.

Regarding `NC(=O)c1ccc(N)nc1` [6-AMINONICOTINAMIDE], in series [7], the EC50 was 23.9 µM. The CC50 in [8] is greater than 500 µM.

The compound `Cc1cc(C2CCCCC2)n(O)c(=O)c1` [CICLOPIROX] returned a CC50 in series [9] greater than 10 µM. Also, the EC50 in [5] is 0.88 µM.

One may read the IC50 as the concentration needed to halve the response being measured. As for `C/C=C/C[C@@H](C)[C@@H](O)[C@H]1C(=O)N[C@@H](CC)C(=O)N(C)CC(=O)N(C)[C@@H](CC(C)C)C(=O)N[C@@H](C(C)C)C(=O)N(C)[C@@H](CC(C)C)C(=O)N[C@@H](C)C(=O)N[C@H](C)C(=O)N(C)[C@@H](CC(C)C)C(=O)N(C)[C@@H](CC(C)C)C(=O)N(C)[C@@H](C(C)C)C(=O)N1C` [CYCLOSPORINE], the IC50 came out at 0.311 µM in series [10] and 0.372 µM in series [11].

For `O=c1oc2ccccc2c(O)c1Cc1c(O)c2ccccc2oc1=O` [DICUMAROL], the CC50 in series [12] is greater than 800 µM. The EC50 in [13] amounted to 100 µM.

`CCCCC1=NC2(CCCC2)C(=O)N1Cc1ccc(-c2ccccc2-c2nnn[nH]2)cc1` [IRBESARTAN]: the EC50 in series [14] was 35 µM. Further, in [15], the CC50 worked out at 287 µM.

Take `CC(=O)Oc1ccccc1C(=O)Nc1ncc([N+](=O)[O-])s1` [NITAZOXANIDE]: the CC50 in series [12] was found to be 57 µM. Moreover, the EC50 in series [13] is less than 10 µM.

Consider `CCOC(=O)c1c(CSc2ccccc2)n(C)c2cc(Br)c(O)c(CN(C)C)c12` [UMIFENOVIR], for which, in series [2], it took 2.3 µM to reach a half-maximal effect (EC50). In series [3], the midpoint of cytotoxicity, the CC50, lay at 58.4 µM.
